# Where two headings read alike, the source gives them in different places.
# Assays:
# vasopressin V2 receptor [1] = molecular target: T1, vasopressin V2 receptor (Homo sapiens, UniProt P30518); assay: Uosm in clinical studies in healthy subjects and various patient populations; assay type: in vivo; conditions: healthy subjects, hyponatremia patients, ESRD patients
# T1 construct: Lixivaptan antagonizes the effects of vasopressin that are mediated by the V2 receptor; from tissue; host or cells: living human subjects (in vivo clinical studies); the receptor is the subjects' own and no tissue was isolated
# T1 sequence (P30518 whole entry): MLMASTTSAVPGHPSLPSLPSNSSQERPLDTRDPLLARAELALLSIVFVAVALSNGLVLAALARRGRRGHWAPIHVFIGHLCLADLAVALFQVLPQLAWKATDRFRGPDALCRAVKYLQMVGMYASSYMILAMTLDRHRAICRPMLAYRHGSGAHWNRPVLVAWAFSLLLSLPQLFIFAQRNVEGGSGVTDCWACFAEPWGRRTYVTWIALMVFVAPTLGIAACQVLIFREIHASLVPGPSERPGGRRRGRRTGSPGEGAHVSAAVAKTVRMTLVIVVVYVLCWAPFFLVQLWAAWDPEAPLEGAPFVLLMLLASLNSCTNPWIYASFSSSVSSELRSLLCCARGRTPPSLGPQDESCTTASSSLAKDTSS
# Description: Lixivaptan in healthy volunteers was tested in a randomized, double-blind, placebo-controlled, ascending multiple-dose, safety and tolerance clinical study in 98 healthy male subjects.
# Subjects with Syndrome of Inappropriate Anti-Diuretic Hormone (SIADH) secretion were tested in a randomized, double-blind, placebo-controlled, ascending single-dose, safety and tolerance study.
# [2] = In-clinic pharmacokinetic study: plasma pharmacokinetics and dose proportionality; assay type: in vivo, human; conditions: 100 mg to 400 mg administered as 2 divided doses
# Description: The primary objective of this study was to assess the pharmacokinetics and dose proportionality of lixivaptan over the dose range targeted for clinical use (e.g., 100 to 400 mg daily) using unit doses of 50 mg and multiples thereof given twice daily for 7.5 days.
# Subjects received lixivaptan at total daily doses of 100 mg, 200 mg, or 400 mg (administered as 50, 100, and 200 mg Q12H). Subjects were to be enrolled into the study in two cohorts of 30 subjects, but actual cohort numbers were 23 and 34 subjects. Of the 57 subjects enrolled in the study, 27 were female (47.4%) and 30 were male (52.6%). The majority of subjects were White (35/57, 61.4%) and of Hispanic or Latino ethnicity (46/57, 80.7%). The overall mean age of subjects in the study was 33.6 (8.31) years, and the overall mean body mass index for subjects was 26.2 (3.79). There were to be approximately 20 subjects enrolled per dose level. An approximately equal number of males and females were enrolled at each dose level such that neither gender was represented by fewer than 8 subjects. The starting date for each cohort subjects was staggered by 7 days for logistical purposes. Screening evaluations were performed within 28 days prior to Day 1. […]
# [3] = Clinical observation of ALT elevations, 400 mg BID for 7 days; assay type: in vivo, human; conditions: 67 individuals
# vasopressin V2 receptor [4] = molecular target: T1, vasopressin V2 receptor; assay: In-clinic pharmacokinetic study: spot urine osmolality after twice daily lixivaptan; assay type: in vivo
# Description: Subjects received lixivaptan at total daily doses of 100 mg, 200 mg, or 400 mg (administered as 50, 100, and 200 mg Q12H). […] There were to be approximately 20 subjects enrolled per dose level. An approximately equal number of males and females were enrolled at each dose level such that neither gender was represented by fewer than 8 subjects. The starting date for each cohort subjects was staggered by 7 days for logistical purposes. Screening evaluations were performed within 28 days prior to Day 1.
# The following doses of lixivaptan were administered to subjects in this study: (a) Lixivaptan 100 mg, administered as 50 mg [1×50 mg capsule] every 12 hours×15 doses; (b) lixivaptan 200 mg, administered as 100 mg [2×50 mg capsules] every 12 hours×15 doses; and (c) Lixivaptan 400 mg, administered as 200 mg [4×50 mg capsules] every 12 hours×15 doses.
# Prior to the morning doses of lixivaptan on Days 1 and 8, subjects fasted for approximately 10 hours prior to lixivaptan administration and 4 hours after lixivaptan administration. All other doses were administered under fasting conditions, either 2 hours before or 2 hours after meals. The study medication was administered with 240 milliliters (mL) room temperature water. Subjects were not to receive any oral fluids, other than those used to administer the dose, for 1 hour before and 1 hour after dose administration. Subjects remained sitting or semi-supine, except to void, for 6 hours following the first two doses. While in the clinic, the subjects refrained from strenuous physical activity.
# Spot urine collections for urine osmolality determinations were obtained during the clinic stay and at the end of study (EOS).
# Spot urine osmolality was evaluated at different times during the day.
# [5] = Single 100 mg oral dose study in ESRD and normal renal function subjects: pharmacokinetics and tolerability; assay type: in vivo, human; conditions: for AUC(0-inf) / AUC(0-t) / Cmax / Vd/F / half-life: po, 100 mg; for Vd/F: read-out: VZ/F Mean; for half-life: read-out: t1/2 Median (converted)
# Description: A clinical study was undertaken to determine the pharmacokinetics (PK) of lixivaptan in renally impaired subjects. In this study, the PK of lixivaptan following a single 100 mg oral dose of lixivaptan was evaluated in subjects with end-stage renal disease (ESRD) and control subjects with normal renal function. Pharmacodynamic (PD) evaluations, including vasopressin concentration, serum sodium concentration, urine volume, and urine osmolality were assessed. Overall total lixivaptan exposure was, on average, 32 and 31% lower in ESRD subjects compared to subjects with normal renal function, as assessed by AUC0-∞ and AUC0-t, respectively. Similarly, peak total lixivaptan concentrations were, on average, 31% lower in subjects with ESRD.
# [6] = human, in vivo, single 100 mg oral dose, ESRD
# [7] = human, in vivo, single 100 mg oral dose, Normal
# [8] = single 100 mg oral dose, Normal
smiles,measurement,setting,value
"Cc1ccc(F)cc1C(=O)Nc1ccc(C(=O)N2Cc3cccn3Cc3ccccc32)c(Cl)c1 [Lixivaptan, 5-fluoro-2-methyl-N-[4-(5H-pyrrolo[2,1-C] [1,4]benzodiazepin-10(11H)-ylcarbonyl)-3-chlorophenyl]benzamide]",urinary osmolality suppressed to levels below target threshold,vasopressin V2 receptor [1],< 300 mOsm/kg
same,"dose proportionality of pharmacokinetic parameters (Cmax, AUC(0-12))",[2],proportional kinetics
same,ALT elevations in treated individuals,[3],no ALT elevations
same,% of subjects with full 24 hour suppression of Uosm to 300 mOsm/kg or lower,vasopressin V2 receptor [4]; 50 mg lixivaptan twice daily,approximately 16%
same,Urine Osmolality Mean,"vasopressin V2 receptor [4]; 100 mg as 50 mg Q12H, Day 1 Hour 1",250.9 mOsm/kg
same,Urine Osmolality Mean,"vasopressin V2 receptor [4]; 100 mg as 50 mg Q12H, Day 1 Hour 2",79.8 mOsm/kg
same,Urine Osmolality Mean,"vasopressin V2 receptor [4]; 100 mg as 50 mg Q12H, Day 1 Hour 4",150.6 mOsm/kg
same,Urine Osmolality Mean,"vasopressin V2 receptor [4]; 100 mg as 50 mg Q12H, Day 1 Hour 12",378.7 mOsm/kg
same,Urine Osmolality Mean,"vasopressin V2 receptor [4]; 100 mg as 50 mg Q12H, Day 8 Hour 0",464.7 mOsm/kg
same,Urine Osmolality Mean,"vasopressin V2 receptor [4]; 100 mg as 50 mg Q12H, Day 8 Hour 1",222.5 mOsm/kg
same,Urine Osmolality Mean,"vasopressin V2 receptor [4]; 100 mg as 50 mg Q12H, Day 8 Hour 2",139.1 mOsm/kg
same,Urine Osmolality Mean,"vasopressin V2 receptor [4]; 100 mg as 50 mg Q12H, Day 8 Hour 4",274.3 mOsm/kg
same,Urine Osmolality Mean,"vasopressin V2 receptor [4]; 100 mg as 50 mg Q12H, Day 8 Hour 12",447.4 mOsm/kg
same,Urine Osmolality Mean,"vasopressin V2 receptor [4]; 100 mg as 50 mg Q12H, Day 9 Hour 24 after dosing",564.7 mOsm/kg
same,Urine Osmolality Mean,"vasopressin V2 receptor [4]; 100 mg as 50 mg Q12H, EOS (end of study, Day 29)",805.5 mOsm/kg
same,% of subjects with full 24 hour suppression of Uosm to 300 mOsm/kg or lower,vasopressin V2 receptor [4]; 100 mg twice daily,approximately 46%
same,Urine Osmolality Mean,"vasopressin V2 receptor [4]; 200 mg as 100 mg Q12H, Day 1 Hour 1",285.9 mOsm/kg
same,Urine Osmolality Mean,"vasopressin V2 receptor [4]; 200 mg as 100 mg Q12H, Day 1 Hour 2",76.9 mOsm/kg
same,Urine Osmolality Mean,"vasopressin V2 receptor [4]; 200 mg as 100 mg Q12H, Day 1 Hour 4",136.5 mOsm/kg
same,Urine Osmolality Mean,"vasopressin V2 receptor [4]; 200 mg as 100 mg Q12H, Day 1 Hour 12",369.9 mOsm/kg
same,Urine Osmolality Mean,"vasopressin V2 receptor [4]; 200 mg as 100 mg Q12H, Day 8 Hour 0",323.6 mOsm/kg
same,Urine Osmolality Mean,"vasopressin V2 receptor [4]; 200 mg as 100 mg Q12H, Day 8 Hour 1",156.7 mOsm/kg
same,Urine Osmolality Mean,"vasopressin V2 receptor [4]; 200 mg as 100 mg Q12H, Day 8 Hour 2",93.9 mOsm/kg
same,Urine Osmolality Mean,"vasopressin V2 receptor [4]; 200 mg as 100 mg Q12H, Day 8 Hour 4",186.7 mOsm/kg
same,Urine Osmolality Mean,"vasopressin V2 receptor [4]; 200 mg as 100 mg Q12H, Day 8 Hour 12",334.7 mOsm/kg
same,Urine Osmolality Mean,"vasopressin V2 receptor [4]; 200 mg as 100 mg Q12H, Day 9 Hour 24 after dosing",465.9 mOsm/kg
same,Urine Osmolality Mean,"vasopressin V2 receptor [4]; 200 mg as 100 mg Q12H, EOS (end of study, Day 29)",694.1 mOsm/kg
same,% of subjects with full 24 hour suppression of Uosm to 300 mOsm/kg or lower (% responders),vasopressin V2 receptor [4]; 200 mg twice daily,approximately 78%
same,Urine Osmolality Mean,"vasopressin V2 receptor [4]; 400 mg as 200 mg Q12H, Day 1 Hour 1",237.4 mOsm/kg
same,Urine Osmolality Mean,"vasopressin V2 receptor [4]; 400 mg as 200 mg Q12H, Day 1 Hour 2",74.5 mOsm/kg
same,Urine Osmolality Mean,"vasopressin V2 receptor [4]; 400 mg as 200 mg Q12H, Day 1 Hour 4",91.0 mOsm/kg
same,Urine Osmolality Mean,"vasopressin V2 receptor [4]; 400 mg as 200 mg Q12H, Day 1 Hour 12",294.1 mOsm/kg
same,Urine Osmolality Mean,"vasopressin V2 receptor [4]; 400 mg as 200 mg Q12H, Day 8 Hour 0",231.0 mOsm/kg
same,Urine Osmolality Mean,"vasopressin V2 receptor [4]; 400 mg as 200 mg Q12H, Day 8 Hour 1",106.9 mOsm/kg
same,Urine Osmolality Mean,"vasopressin V2 receptor [4]; 400 mg as 200 mg Q12H, Day 8 Hour 2",82.3 mOsm/kg
same,Urine Osmolality Mean,"vasopressin V2 receptor [4]; 400 mg as 200 mg Q12H, Day 8 Hour 4",139.1 mOsm/kg
same,Urine Osmolality Mean,"vasopressin V2 receptor [4]; 400 mg as 200 mg Q12H, Day 8 Hour 12",219.5 mOsm/kg
same,Urine Osmolality Mean,"vasopressin V2 receptor [4]; 400 mg as 200 mg Q12H, Day 9 Hour 24 after dosing",390.3 mOsm/kg
same,Urine Osmolality Mean,"vasopressin V2 receptor [4]; 400 mg as 200 mg Q12H, EOS (end of study, Day 29)",704.8 mOsm/kg
same,time of mean maximal reduction of urine osmolality,"vasopressin V2 receptor [4]; after first dose on Day 1 and Day 8, regardless of the dose",2 h
same,Urine Osmolality Mean,"vasopressin V2 receptor [4]; healthy subjects, 100 mg as 50 mg Q12H, Day 1 Hour 0 (baseline)",587.8 mOsm/kg
same,Urine Osmolality Mean,"vasopressin V2 receptor [4]; healthy subjects, 200 mg as 100 mg Q12H, Day 1 Hour 0 (baseline)",602.7 mOsm/kg
same,Urine Osmolality Mean,"vasopressin V2 receptor [4]; healthy subjects, 400 mg as 200 mg Q12H, Day 1 Hour 0 (baseline)",600.1 mOsm/kg
same,tolerability of single doses,"[5]; both groups (normal, ESRD)",well tolerated
same,AUC(0-inf),[5]; [6],856 ng·h/mL
same,AUC(0-t),[5]; [6],809 ng·h/mL
same,Cmax,[5]; [6],238 ng/mL
same,Vd/F,[5]; [6],2740 L
same,half-life,[5]; [6],13.3 h
same,AUC(0-t),[5]; [7],1200 ng·h/mL
same,Cmax,[5]; [7],383 ng/mL
same,AUC(0-inf),"[5]; human, in vivo, single 100 mg oral dose, Normal renal function",1290 ng·h/mL
same,Vd/F,[5]; [7],1750 L
same,half-life,[5]; [7],12 h
same,Tmax,"[5]; human, in vivo, single 100 mg oral dose, Normal, read-out: tmax Median",1 h
same,peak total lixivaptan concentrations lower in subjects with ESRD,[5]; single 100 mg oral dose,31%
same,total lixivaptan exposure (AUC0-t) lower in ESRD subjects compared to normal renal function,[5]; single 100 mg oral dose,31%
same,total lixivaptan exposure (AUC0-∞) lower in ESRD subjects compared to normal renal function,[5]; single 100 mg oral dose,32%
same,CL/F Mean,"[5]; single 100 mg oral dose, ESRD",137 L/h
same,Lambdaz Median,"[5]; single 100 mg oral dose, ESRD",0.05752 h⁻¹
same,CL/F Mean,[5]; [8],94.2 L/h
same,Lambdaz Median,[5]; [8],0.06035 h⁻¹
